Test results published in patent US11000601B2, “Conjugated biological molecules, pharmaceutical compositions and methods” (OBI Pharma, Inc., priority 2016, dated 2021).
Several values for one entry are separate records, joined by “and”; a condition that tells them apart may be missing. Equal values may be shown once. Square brackets hold non-standard residues; d marks the D form. Peptide text beside a SMILES is read from it. * marks the point of attachment. Dolaproine = CO[C@@H]([C@@H]1CCCN1)[C@@H](C)C(=O)O; Dil = CC[C@H](C)[C@H](NC)[C@@H](CC(=O)O)OC; X1 = C[C@@H](N*)[C@@H](O)c1ccccc1; NMeV = CN[C@H](C(=O)O)C(C)C

Test system: MCF-7 (ATCC HTB-22) human breast adenocarcinoma
Assay: Xenograft tumor model of human breast adenocarcinoma MCF-7 in nude mice: tumor volume, T/C
Type: in vivo
Conditions: for Tumor Volume, individual mouse: mice No. 1-6
Protocol: In a xenograft tumor model of human breast adenocarcinoma, MCF-7 (ATCC HTB-22) cells were subcutaneously (SC) implanted (2.0×10^7 cells in 1:1 matrigel/media mixture at 0.2 mL/mouse) into the right flank of female athymic (nu/nu) nude mice. Supplemental injections of estradiol cyclopentyl propionate (100 μg/mouse) were administered subcutaneously between the scapulae twice weekly, from one week prior to cell implantation to study completion. Tumor-implanted mice were divided into eleven treatment groups, each group containing six animals, and test agent administrations were initiated one day after cell implantation (denoted as Day 1). 3.1 Test Substances and Dosing Pattern
Two control groups received intravenous injections of vehicle (25 mM Sodium Citrate, pH 6.5+100 mM NaCl) once weekly for either six weeks (group 1) or two weeks (group 2).
Human breast adenocarcinoma tumor cell line, MCF-7 (ATCC HTB-22, breast adenocarcinoma), was provided by the Sponsor. The tumor cells were prepared and cultured by the Sponsor (1×10^8 cells/mL), and 0.2 mL MCF-7 tumor cell inoculum containing 2×10^7 cells (mixture of matrigel and medium; 1:1) was implanted subcutaneously in the right flank of each mouse.
Female (nu/nu) nude mice aged 6-7 weeks obtained from BioLasco Taiwan (under Charles River Laboratories Licensee) were used. The animals were housed in individually ventilated cages (IVG, 36 Mini Isolator System). The allocation for 3-5 animals was 27×20×14 in cm. All animals were maintained in a hygienic environment under controlled temperature (20-24° C.) and humidity (30-70%) with 12-hour light/dark cycle. Free access to standard lab diet (Oriental Yeast Co., Ltd., Japan) and autoclaved tap water were granted. All aspects of this work including housing, experimentation, and animal disposal were performed in general accordance with the “Guide for the Care and Use of Laboratory Animals: Eighth Edition” (National Academies Press, Washington, D.C., 2011) in our AAALAC-accredited laboratory animal facility. In addition, the animal care and use protocol was reviewed and approved by the IACUC at Eurofins Panlabs Taiwan, Ltd.
The tumor volumes, body weights, mortality, and signs of overt toxicity were monitored and recorded twice weekly for 77 days. Tumor volume (mm^3) was calculated according to the formula for a prolate ellipsoid: length (mm)×[width (mm)]^2×0.5. Tumor growth inhibition was calculated as T/C (treatment/control)×100%. A T/C value≤42% was considered significant anti-tumor activity. Two-way ANOVA followed by Bonferroni test was used to ascertain the statistical significance of groups compared to respective vehicle control (*p<0.05).

[1] = 0.057 mg/kg × 6 IV once weekly, Day 29
[2] = 0.057 mg/kg × 6 IV once weekly, Day 33
[3] = 0.057 mg/kg × 6 IV once weekly, Day 36
[4] = 0.057 mg/kg × 6 IV once weekly, Day 40
[5] = 0.057 mg/kg × 6 IV once weekly, Day 43
[6] = 0.057 mg/kg × 6 IV once weekly, Day 46
[7] = 0.057 mg/kg × 6 IV once weekly, Day 49
[8] = Gr. 11, 0.057 mg/kg × 6, IV, once weekly, Day 53
[9] = Gr. 11, 0.057 mg/kg × 6, IV, once weekly, Day 56
[10] = Gr. 11, 0.057 mg/kg × 6, IV, once weekly, Day 60
[11] = Gr. 11, 0.057 mg/kg × 6, IV, once weekly, Day 63
[12] = Gr. 11, 0.057 mg/kg × 6, IV, once weekly, Day 67
[13] = Gr. 11, 0.057 mg/kg × 6, IV, once weekly, Day 70
[14] = Gr. 11, 0.057 mg/kg × 6, IV, once weekly, Day 74
[15] = Gr. 11, 0.057 mg/kg × 6, IV, once weekly, Day 77

Structure (SMILES): CC[C@H](C)[C@@H]([C@@H](CC(=O)N1CCC[C@H]1[C@H](OC)[C@@H](C)C(=O)N[C@H](C)[C@@H](O)c1ccccc1)OC)N(C)C(=O)[C@@H](NC(=O)[C@@H](NC)C(C)C)C(C)C [MMAE, monomethyl auristatin E] (H-[NMeV]V[Dil][Dolaproine]-X1)
- Tumor Volume, single mouse (No. 1-6) (0.057 mg/kg × 6, IV, once weekly, Day 26): 135 mm^3 and 127 mm^3 and 119 mm^3 and 154 mm^3 and 179 mm^3 and 144 mm^3
- % T/C [1]: 54%
- Tumor Volume, Mean (0.057 mg/kg × 6 IV once weekly, Day 29, group mean): 151 mm^3
- Tumor Volume, individual mouse [1]: 146 mm^3 and 131 mm^3 and 119 mm^3 and 156 mm^3 and 194 mm^3 and 160 mm^3
- % T/C [2]: 55%
- Tumor Volume, Mean (0.057 mg/kg × 6 IV once weekly, Day 33, group mean): 168 mm^3
- Tumor Volume, individual mouse [2]: 162 mm^3 and 152 mm^3 and 133 mm^3 and 168 mm^3 and 216 mm^3 and 177 mm^3
- % T/C [3]: 59%
- Tumor Volume, Mean (0.057 mg/kg × 6 IV once weekly, Day 36, group mean): 192 mm^3
- Tumor Volume, individual mouse [3]: 171 mm^3 and 154 mm^3 and 152 mm^3 and 201 mm^3 and 256 mm^3 and 218 mm^3
- % T/C [4]: 61%
- Tumor Volume, Mean (0.057 mg/kg × 6 IV once weekly, Day 40, group mean): 210 mm^3
- Tumor Volume, individual mouse [4]: 184 mm^3 and 186 mm^3 and 156 mm^3 and 223 mm^3 and 285 mm^3 and 226 mm^3
- % T/C [5]: 63%
- Tumor Volume, Mean (0.057 mg/kg × 6 IV once weekly, Day 43, group mean): 232 mm^3
- Tumor Volume, individual mouse [5]: 186 mm^3 (2×) and 239 mm^3 and 242 mm^3 and 296 mm^3 and 240 mm^3
- % T/C [6]: 65%
- Tumor Volume, Mean (0.057 mg/kg × 6 IV once weekly, Day 46, group mean): 256 mm^3
- Tumor Volume, individual mouse [6]: 204 mm^3 and 261 mm^3 and 222 mm^3 and 258 mm^3 and 332 mm^3 and 259 mm^3
- % T/C [7]: 64%
- Tumor Volume, Mean (0.057 mg/kg × 6 IV once weekly, Day 49, group mean): 272 mm^3
- Tumor Volume, individual mouse [7]: 210 mm^3 and 270 mm^3 and 235 mm^3 and 301 mm^3 and 351 mm^3 and 264 mm^3
- % T/C (tumor volume, treatment/control) [8]: 64%
- Tumor Volume, Mean [8]: 290 mm^3
- Tumor Volume, individual animals No. 1-6 [8]: 216 mm^3 and 291 mm^3 and 268 mm^3 and 319 mm^3 and 373 mm^3 and 270 mm^3
- % T/C (tumor volume, treatment/control) [9]: 65%
- Tumor Volume, Mean [9]: 323 mm^3
- Tumor Volume, individual animals No. 1-6 [9]: 305 mm^3 and 249 mm^3 and 325 mm^3 and 329 mm^3 and 399 mm^3 and 328 mm^3
- % T/C (tumor volume, treatment/control) [10]: 65%
- Tumor Volume, Mean [10]: 357 mm^3
- Tumor Volume, individual animals No. 1-6 [10]: 312 mm^3 and 262 mm^3 and 383 mm^3 and 373 mm^3 and 453 mm^3 and 358 mm^3
- % T/C (tumor volume, treatment/control) [11]: 71%
- Tumor Volume, Mean [11]: 421 mm^3
- Tumor Volume, individual animals No. 1-6 [11]: 286 mm^3 and 422 mm^3 and 494 mm^3 and 418 mm^3 and 496 mm^3 and 412 mm^3
- % T/C (tumor volume, treatment/control) [12]: 71%
- Tumor Volume, Mean [12]: 469 mm^3
- Tumor Volume, individual animals No. 1-6 [12]: 307 mm^3 and 458 mm^3 and 598 mm^3 and 455 mm^3 and 505 mm^3 and 489 mm^3
- % T/C (tumor volume, treatment/control) [13]: 73%
- Tumor Volume, Mean [13]: 512 mm^3
- Tumor Volume, individual animals No. 1-6 [13]: 333 mm^3 and 591 mm^3 and 603 mm^3 and 493 mm^3 and 523 mm^3 and 528 mm^3
- % T/C (tumor volume, treatment/control) [14]: 79%
- Tumor Volume, Mean [14]: 584 mm^3
- Tumor Volume, individual animals No. 1-6 [14]: 365 mm^3 and 625 mm^3 and 681 mm^3 and 570 mm^3 and 568 mm^3 and 695 mm^3
- % T/C (tumor volume, treatment/control) [15]: 83%
- Tumor Volume, Mean [15]: 736 mm^3
- Tumor Volume, individual animals No. 1-6 [15]: 410 mm^3 and 922 mm^3 and 760 mm^3 and 632 mm^3 and 807 mm^3 and 887 mm^3
